Measured values taken from patent EP4768499A1, “MACROCYCLIC PEPTIDE COMPOUND HAVING CELL MEMBRANE PERMEABILITY AND METABOLIC STABILITY, AND LIBRARY CONTAINING SAME” (Chugai Seiyaku Kabushiki Kaisha, priority 2023, dated 2025).
Where two headings read alike, the source gives them in different places. Starred links: 1 amine or outer side, 2 acyl side, 3 side chain; linkers in the order of their positions; H or OH if unused. Positions of bridges follow the written chain, without caps; N, C: chain ends. Non-standard residues stand in square brackets, D forms with d. Residues, ends and D or L forms follow the SMILES beside them. *: point of attachment. NMedβ3hAla = C[C@H](CC(=O)[*:2])N(C)[*:1]; NMeF = CN[C@@H](Cc1ccccc1)C(=O)O; NMeGABA = CN(CCCC(=O)[*:2])[*:1]; NMeI = CC[C@H](C)[C@H](NC)C(=O)O; NMeT = CN[C@H](C(=O)O)[C@@H](C)O; hPhe = N[C@@H](CCc1ccccc1)C(=O)O; NMeβAla = CN(CCC(=O)[*:2])[*:1]; NMeD = CN[C@@H](CC(=O)O)C(=O)O; NMeL = CN[C@@H](CC(C)C)C(=O)O; NMeV = CN[C@H](C(=O)O)C(C)C; d(β3hA) = C[C@@H](N)CC(=O)O; NMeAbu = CC[C@H](NC)C(=O)O; NMeA = CN[C@@H](C)C(=O)O; Piperidide = C1CCN(*)CC1; Abu = CC[C@H](N)C(=O)O; Sar = CNCC(=O)O; tBu = CC(C)(C)*

Columns and labels:
Caco-2 cells = assay: Membrane permeability test using Caco-2 cells with preincubation; assay type: in vitro ADME
[1] = as above; assay type: in vitro ADME; conditions: Caco-2
[2] = Metabolic stability test: liver microsomal stability assay; assay type: in vitro ADME, mouse; conditions: for microsomal CLint at 1 µM: male, pH 7.4, presence of NADPH, read-out: Mouse Hepatic Microsome CLh,int NADPH(+)
[3] = Caco-2 cells, preincubation 20 to 24 hours, apical FaSSIF/HBSS 1% DMSO pH 6.0, basal HBSS 4% BSA pH 7.4, basal sample at 180 minutes
[4] = preincubation 20 to 24 hours, Apical FaSSIF/HBSS pH 6.0, Basal HBSS 4% BSA pH 7.4, 180 minutes, read-out: Caco2 Papp
[5] = mouse liver microsomes 0.5 mg protein/mL, compound 1 µM
[6] = mouse liver microsomes 0.5 mg protein/mL, compound 1 µM, absence of NADPH

With CC[C@H](C)[C@@H]1NC(=O)[C@H](C)N(C)C(=O)[C@H]([C@@H](C)O)NC(=O)[C@H](Cc2ccccc2)N(C)C(=O)[C@H](COC(C)(C)C)NC(=O)[C@H](CC(C)C)N(C)C(=O)[C@H](CCc2ccccc2)NC(=O)[C@@H]2CCCN2C(=O)[C@H]([C@@H](C)CC)NC(=O)[C@H](CC(C)C)N(C)C(=O)CCCN(C)C(=O)C[C@@H](C(=O)N2CCCCC2)NC(=O)[C@H](CC(C)C)N(C)C1=O [pd102] ([NMeGABA][NMeL]IP[hPhe][NMeL]S(tBu)[NMeF]T[NMeA]I[NMeL]D-Piperidide; lactam N-13) the “Caco2 Papp (10^-6 cm/sec)” value (Caco-2 cells; [3]) was 0.09 10^-6 cm/sec, the Papp A→B [1, 4] was 0.09 ×10⁻⁶ cm/s and the microsomal CLint at 1 µM [2, 5] was 32.9 µL/min/mg. The “Mouse Hepatic Microsome CLh,int NADPH(-)” value [2, 6] was 25.1 µL/min/mg Protein.
For CC[C@H](C)[C@@H]1NC(=O)[C@H](C)N(C)C(=O)CCCN(C)C(=O)C[C@@H](C)NC(=O)[C@H](C(C)C)N(C)C(=O)[C@H](CCc2ccccc2)NC(=O)[C@H](C)N(C)C(=O)[C@H]([C@@H](C)O)N(C)C(=O)[C@H](CC(C)C)N(C)C(=O)[C@H](C(C)C)NC(=O)[C@H](Cc2ccccc2)N(C)C(=O)[C@H](C)N(C)C(=O)[C@H](C(C)C)N(C)C1=O [pd137] (cyclo(I[NMeV][NMeA][NMeF]V[NMeL][NMeT][NMeA][hPhe][NMeV][d(β3hA)][NMeGABA][NMeA])), the “Caco2 Papp (10^-6 cm/sec)” value (Caco-2 cells; [3]) was 0.55 10^-6 cm/sec, the Papp A→B [1, 4] was 0.55 ×10⁻⁶ cm/s and the microsomal CLint at 1 µM [2, 5] was 14.1 µL/min/mg. For the same molecule, the “Mouse Hepatic Microsome CLh,int NADPH(-)” value [2, 6] was 7.5 µL/min/mg Protein.
For CC[C@H](C)[C@H]1C(=O)N[C@@H]([C@@H](C)O)C(=O)N(C)CC(=O)N(C)[C@@H](CC(C)C)C(=O)N(C)[C@@H](Cc2ccccc2)C(=O)N[C@H](C(=O)N2CCCCC2)CC(=O)N(C)[C@@H](C)C(=O)N[C@@H](CC(C)C)C(=O)N(C)[C@@H](Cc2ccccc2)C(=O)N(C)[C@@H](C)C(=O)N(C)[C@@H](CC(C)C)C(=O)N[C@@H](COC(C)(C)C)C(=O)N(C)[C@@H](C)C(=O)N[C@@H](CC(C)C)C(=O)N1C [pd044] ([NMeA]L[NMeF][NMeA][NMeL]S(tBu)[NMeA]L[NMeI]T[Sar][NMeL][NMeF]D-Piperidide; lactam N-14), the “Caco2 Papp (10^-6 cm/sec)” value (Caco-2 cells; [3]) was 0.83 10^-6 cm/sec, the Papp A→B [1, 4] was 0.83 ×10⁻⁶ cm/s and the microsomal CLint at 1 µM [2, 5] was 54.3 µL/min/mg. For the same molecule, the “Mouse Hepatic Microsome CLh,int NADPH(-)” value [2, 6] was 33.1 µL/min/mg Protein.
With CC[C@H]1C(=O)N[C@@H](COC(C)(C)C)C(=O)N(C)[C@@H](C(C)C)C(=O)N(C)[C@@H](C)C(=O)N(C)[C@H](C)CC(=O)N[C@H](C(C)C)C(=O)N(C)[C@@H](CC(C)C)C(=O)N[C@@H](C)C(=O)N(C)[C@@H](C(C)C)C(=O)N(C)[C@@H](CC(C)C)C(=O)NCC(=O)N(C)[C@@H]([C@@H](C)O)C(=O)N(C)[C@@H](Cc2ccccc2)C(=O)N1C [pd147] (cyclo(A[NMeV][NMeL]G[NMeT][NMeF][NMeAbu]S(tBu)[NMeV][NMeA][NMedβ3hAla][dV][NMeL])) the “Caco2 Papp (10^-6 cm/sec)” value (Caco-2 cells; [3]) was 0.26 10^-6 cm/sec, the Papp A→B [1, 4] was 0.26 ×10⁻⁶ cm/s and the microsomal CLint at 1 µM [2, 5] was 13.1 µL/min/mg. The “Mouse Hepatic Microsome CLh,int NADPH(-)” value [2, 6] was 14.8 µL/min/mg Protein.
In the case of CC[C@H](C)[C@H]1C(=O)NCC(=O)N(C)[C@@H](CC(C)C)C(=O)N(C)[C@@H](C(C)C)C(=O)N(C)[C@@H](C)C(=O)N(C)[C@H](C(=O)N2CCCCC2)CC(=O)N(C)[C@@H](C)C(=O)N[C@@H](CC(C)C)C(=O)N(C)[C@@H](CC(C)C)C(=O)N[C@@H](COC(C)(C)C)C(=O)N(C)[C@@H](Cc2ccccc2)C(=O)N[C@@H](C)C(=O)N(C)[C@@H](Cc2ccccc2)C(=O)N1C [pd155] ([NMeA]L[NMeL]S(tBu)[NMeF]A[NMeF][NMeI]G[NMeL][NMeV][NMeA][NMeD]-Piperidide; lactam N-13), the “Caco2 Papp (10^-6 cm/sec)” value (Caco-2 cells; [3]) was 0.87 10^-6 cm/sec, the Papp A→B [1, 4] was 0.87 ×10⁻⁶ cm/s and the microsomal CLint at 1 µM [2, 5] was 48.8 µL/min/mg. For the same molecule, the “Mouse Hepatic Microsome CLh,int NADPH(-)” value [2, 6] was 37.2 µL/min/mg Protein.
For CC[C@@H]1NC(=O)[C@H](Cc2ccccc2)N(C)C(=O)[C@H](C(C)C)NC(=O)[C@H](COC(C)(C)C)NC(=O)[C@H](C)N(C)C(=O)CN(C)C(=O)[C@H](CC(C)C)NC(=O)[C@@H]2CCCN2C(=O)[C@H](C(C)C)N(C)C(=O)[C@H](C)NC(=O)[C@H](CC)N(C)C(=O)[C@@H](C(C)C)NC(=O)C[C@@H](C(=O)N2CCCCC2)NC(=O)[C@H](C(C)C)N(C)C1=O [pd013] ([dV][NMeAbu]A[NMeV]PL[Sar][NMeA]S(tBu)V[NMeF][Abu][NMeV]D-Piperidide; lactam N-14), the “Caco2 Papp (10^-6 cm/sec)” value (Caco-2 cells; [3]) was 0.04 10^-6 cm/sec, the Papp A→B [1, 4] was 0.04 ×10⁻⁶ cm/s and the microsomal CLint at 1 µM [2, 5] was 12.1 µL/min/mg. For the same molecule, the “Mouse Hepatic Microsome CLh,int NADPH(-)” value [2, 6] was 6.1 µL/min/mg Protein.
With CC[C@@H]1NC(=O)[C@H](Cc2ccccc2)N(C)C(=O)[C@H](COC(C)(C)C)NC(=O)[C@H](CC(C)C)N(C)C(=O)[C@H](CC(C)C)NC(=O)[C@H](C)N(C)C(=O)C[C@@H](C(=O)N2CCCCC2)N(C)C(=O)[C@H](CC(C)C)N(C)C(=O)[C@H]([C@@H](C)CC)NC(=O)[C@H](Cc2ccccc2)N(C)C(=O)[C@H]([C@@H](C)O)N(C)C(=O)[C@H](CC)N(C)C(=O)[C@H](CC(C)C)NC(=O)CN(C)C1=O [pd091] ([NMeA]L[NMeL]S(tBu)[NMeF][Abu][Sar]L[NMeAbu][NMeT][NMeF]I[NMeL][NMeD]-Piperidide; lactam N-14) the “Caco2 Papp (10^-6 cm/sec)” value (Caco-2 cells; [3]) was 0.11 10^-6 cm/sec, the Papp A→B [1, 4] was 0.11 ×10⁻⁶ cm/s and the microsomal CLint at 1 µM [2, 5] was 39.4 µL/min/mg. For the same molecule, the “Mouse Hepatic Microsome CLh,int NADPH(-)” value [2, 6] was 36.1 µL/min/mg Protein.
With CC[C@H](C)[C@@H]1NC(=O)[C@H]([C@@H](C)CC)N(C)C(=O)[C@@H](C)NC(=O)C[C@@H](C(=O)N2CCCCC2)N(C)C(=O)[C@H](Cc2ccccc2)N(C)C(=O)[C@H](C(C)C)NC(=O)CCN(C)C(=O)[C@H](CC)N(C)C(=O)[C@H](CC(C)C)N(C)C(=O)[C@H](C)NC(=O)CN(C)C(=O)[C@H](CC(C)C)N(C)C(=O)CCN(C)C(=O)[C@H](Cc2ccccc2)N(C)C1=O [pd081] ([dA][NMeI]I[NMeF][NMeβAla][NMeL][Sar]A[NMeL][NMeAbu][NMeβAla]V[NMeF][NMeD]-Piperidide; lactam N-14) the “Caco2 Papp (10^-6 cm/sec)” value (Caco-2 cells; Caco-2) was 0.02 10^-6 cm/sec, the Papp A→B [1] was 0.02 ×10⁻⁶ cm/s and the “Mouse Hepatic Microsome CLh,int NADPH(-)” value [2] was 5.7 µL/min/mg Protein.
In the case of CC[C@@H]1NC(=O)[C@H](CC(C)C)N(C)C(=O)[C@H]([C@@H](C)CC)NC(=O)[C@H](CC(C)C)N(C)C(=O)C[C@@H](C)NC(=O)[C@H](C(C)C)N(C)C(=O)[C@H](CC(C)C)NC(=O)[C@H](CC)N(C)C(=O)[C@H](Cc2ccccc2)N(C)C(=O)[C@@H]2CCCN2C(=O)[C@H](CC(C)C)NC(=O)[C@H]([C@@H](C)O)N(C)C(=O)[C@H](C)NC(=O)[C@H](CC(C)C)N(C)C1=O [pd053] (cyclo(A[NMeT]LP[NMeF][NMeAbu]L[NMeV][d(β3hA)][NMeL]I[NMeL][Abu][NMeL])), the “Caco2 Papp (10^-6 cm/sec)” value (Caco-2 cells; [3]) was 1.64 10^-6 cm/sec, the Papp A→B [1, 4] was 1.64 ×10⁻⁶ cm/s and the microsomal CLint at 1 µM [2, 5] was 45.7 µL/min/mg. For the same molecule, the “Mouse Hepatic Microsome CLh,int NADPH(-)” value [2, 6] was 24.1 µL/min/mg Protein.
In the case of CC[C@@H]1NC(=O)[C@H](CC(C)C)N(C)C(=O)[C@H](C)NC(=O)[C@@H]2CCCN2C(=O)[C@H](CC)N(C)C(=O)[C@H](CC(C)C)N(C)C(=O)CN(C)C(=O)[C@H](Cc2ccccc2)N(C)C(=O)[C@H]([C@@H](C)CC)NC(=O)CCN(C)C(=O)[C@H](C(C)C)N(C)C(=O)[C@H](COC(C)(C)C)NC(=O)[C@H](CC(C)C)N(C)C(=O)C[C@@H](C(=O)N2CCCCC2)N(C)C1=O [pd083] ([NMeL]S(tBu)[NMeV][NMeβAla]I[NMeF][Sar][NMeL][NMeAbu]PA[NMeL][Abu][NMeD]-Piperidide; lactam N-14), the “Caco2 Papp (10^-6 cm/sec)” value (Caco-2 cells; [3]) was 0.04 10^-6 cm/sec, the Papp A→B [1, 4] was 0.04 ×10⁻⁶ cm/s and the microsomal CLint at 1 µM [2, 5] was 11.4 µL/min/mg. The “Mouse Hepatic Microsome CLh,int NADPH(-)” value [2, 6] was 7.3 µL/min/mg Protein.
